Patent publication US20240066136A1, “MODIFIED PROTEINS AND PROTEIN DEGRADERS” (Cullgen (Shanghai), Inc., priority 2020, published 2024)

How the values were obtained:
[1] = test system: LNCaP cells; assay: LNCaP cell viability (CellTiter-Glo); type: cell-based; details: three days
Description: LNCaP cells seeded in 96-well plates were treated with 10 μM GNE-781 or selected heterobifunctional compounds, following a 12-point 3-fold serial dilution. Three days after treatment, cell viability was determined using the CellTiter-Glo Kit (Promega). Cell viability was normalized to the mean values of 3 replicates of untreated cells. Dose-dependent response was analyzed following the least-squares non-linear regression method using the GraphPad Prism software.

[2] = biological target: Human DDB1 (Homo sapiens (Human), UniProt Q16531); assay: Surface plasmon resonance (SPR) binding assay to immobilized His-DDB1; details: SPR, DDB1 binding moieties with linkers and/or target protein binding moiety; read-out: Binding (Kd)
Summary of the method: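 Baculovirus-expressed His-DDB1 (High5 cells) amine-coupled to 11,000–13,000 RU on a CM5 chip; compounds injected in multi-cycle format without regeneration at 25° C in HBS-EP pH 7.4 (120 s association/dissociation). Double-referenced, solvent-corrected data fit to steady-state affinity model for KD.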

[3] = biological target: T1, P300 (Homo sapiens (Human), UniProt Q09472); assay: Immunoblot of P300 in Calu-1 cells with co-administered proteasome, neddylation or DDB1-ligand competitor; type: cell-based
Excerpt: The heterobifunctional compound-mediated p300 and CBP degradation was dependent on the ubiquitin-proteasome system and cullin E3 ligase. […] The binding with DDB1 also played a role in the heterobifunctional compounds ability to induce degradation of P300 and CBP proteins.

[4] = biological target: T1, P300; assay: Immunoblot of P300 protein in LNCaP cells after compound treatment; type: cell-based
Description: (§1) Experiments were performed to see if heterobifunctional compounds as described herein could degrade target proteins. Specific exemplary heterobifunctional compounds were characterized in LNCaP and Calu-1 cells. LNCaP cells that express P300/CBP proteins were treated with heterobifunctional compounds disclosed herein (D-2, D-13, or D-7) at indicated concentrations for 8 hours. Cells were collected, lysed and subject to immunoblotting using an antibody specific to P300 or CBP proteins. Vinculin was included as the loading control. DMSO treatment was used as the negative control. […] In addition, LNCaP cells were treated with 500 nM of D-2, or D-13 for indicated period of time. Subsequently, changes in P300 and CBP protein levels were measured by immunoblotting.

[5] = biological target: CBP (Homo sapiens (Human), UniProt Q92793); assay: Immunoblot of CBP protein in LNCaP cells after compound treatment; type: cell-based
Description: as §1

[6] = biological target: CDK4 (Homo sapiens (Human), UniProt P11802); assay: Immunoblot of CDK4 protein in Calu-1 cells; type: cell-based; details: 1 μM, 16 hours after administration
Description: (§2) Additional heterobifunctional compounds were designed and tested for their ability to target and degrade another two target proteins, CDK4 and CDK6. Calu-1 cells that express CDK4/6 proteins were treated with heterobifunctional compounds disclosed herein (D-44 to D-49) at indicated concentrations for 16 hours. Cells were collected, lysed and subject to immunoblotting using an antibody specific to CDK4, CDK6 or phosphorylated Rb proteins. Tubulin was included as the loading control. DMSO treatment was used as the negative control. […] In addition, Calu-1 cells were treated with 1 μM D-48 or D-49 for an indicated period of time. Subsequently, changes in CDK4 and CDK6 protein levels were measured by immunoblotting. […] These experiments highlight the ability of DDB1 binder derived heterobifunctional compounds to degrade multiple different target proteins, including but not limited to epigenetic target proteins, such as CBP and p300, and kinases, such as CDK4 and CDK6.

[7] = biological target: CDK6 (Homo sapiens (Human), UniProt Q00534); assay: Immunoblot of CDK6 protein in Calu-1 cells; type: cell-based; details: 1 μM, 16 hours after administration
Description: as §2

[8] = test system: MDAMB-468; assay: Cell viability assay (CellTiter-Glo); type: cell-based; details: Homo sapiens, MDA-MB-468, 120 h; MDAMB-468, 5 days
Description: (§3) A variety of cancer cell lines were treated with Palbociclib or selected heterobifunctional compounds for 5 days at indicated concentrations in FIG. 12.
(§4) Cell Culture. LNCaP (clone FGC), Calu-1, MDA-MB-468, MDA-MB-453, NCI-H358, HCC1937, BT-549, HCT116, A375, SK-MEL-28, SK-N-SH, MIA PaCa-2, HS 578T, HCC827, MIA PaCa-2, and other cells were cultured at 37° C. with 5% CO2 in DMEM or RPMI 1640 Medium supplemented with 10% fetal bovine serum. Cells were authenticated using the short tandem repeat (STR) assays. Mycoplasma test results were negative.
(§5) Cell viability assay. Cells were seeded at a density of 5000 cells per well in 96-well assay plates and treated with test compounds following a 11-point 3-fold serial dilution for 3-5 days. Three days later, cell viability was determined using the CellTiter-Glo Assay Kit according to the manufacturer's instructions. The dose-response curves were determined and IC50 values were calculated using the GraphPad Prism software following a nonlinear regression (least squares fit) method.

[9] = test system: BT-549; assay: Cell viability assay (CellTiter-Glo); type: cell-based; details: Homo sapiens, 120 h; BT-549, 5 days
Description: as §3, §4, §5

[10] = test system: HCT116; assay: Cell viability assay (CellTiter-Glo); type: cell-based; details: Homo sapiens, HCT-116, 120 h; HCT116, 5 days
Description: as §3, §4, §5

[11] = test system: A375; assay: Cell viability assay (CellTiter-Glo); type: cell-based; details: Homo sapiens, A-375, 120 h; A375, 5 days
Description: as §3, §4, §5

[12] = test system: SK-MEL-28; assay: Cell viability assay (CellTiter-Glo); type: cell-based; details: Homo sapiens, 120 h; SK-MEL-28, 5 days
Description: as §3, §4, §5

[13] = test system: Hs 578T; assay: Cell viability assay (CellTiter-Glo); type: cell-based; details: Homo sapiens, 120 h, 5 days
Description: as §3, §4, §5

[14] = test system: SK-N-SH; assay: Cell viability assay (CellTiter-Glo); type: cell-based; details: Homo sapiens, 120 h, 5 days
Description: as §3, §4, §5

[15] = test system: HCC1937; assay: Cell viability assay (CellTiter-Glo); type: cell-based; details: Homo sapiens, 120 h; HCC1937, 5 days
Description: as §3, §4, §5

[16] = test system: HCC827; assay: Cell viability assay (CellTiter-Glo); type: cell-based; details: Homo sapiens, 120 h; HCC827, 5 days
Description: as §3, §4, §5

[17] = test system: NCI-H358; assay: Cell viability assay (CellTiter-Glo); type: cell-based; details: Homo sapiens, 120 h; NCI-H358, 5 days
Description: as §3, §4, §5

[18] = test system: Calu-1, MDA-MB-453, and MIA PaCa-2 cell lines; assay: Cell viability after 5 days of treatment; type: cell-based; details: variety of different cell types
Excerpt: FIG. 12 and Table 8 include cell viability data after treatment with heterobifunctional compound D-128, D129, or D-130. […] The compounds may be effective in multiple cell types.

[19] = test system: Calu-1; assay: Cell viability assay (CellTiter-Glo); type: cell-based; details: Homo sapiens, 120 h; Calu-1, 5 days
Description: (§6) Calu-1, MDA-MB-453 or MIA PaCa-2 cancer cells were treated with Palbociclib or selected heterobifunctional compounds for 5 days at indicated concentrations following a 2-fold serial dilution.
as §3, §4, §5

[20] = test system: MIA PaCa-2; assay: Cell viability assay (CellTiter-Glo); type: cell-based; details: Homo sapiens, 120 h; MIA PaCa-2, 5 days
Description: as §6, §3, §4, §5

[21] = test system: MDAMB-453; assay: Cell viability assay (CellTiter-Glo); type: cell-based; details: Homo sapiens, MDA-MB-453, 120 h; MDAMB-453, 5 days
Description: as §6, §3, §4, §5

[22] = indicated concentrations, 8 hours, immunoblot

T1 sequence (Q09472 whole entry): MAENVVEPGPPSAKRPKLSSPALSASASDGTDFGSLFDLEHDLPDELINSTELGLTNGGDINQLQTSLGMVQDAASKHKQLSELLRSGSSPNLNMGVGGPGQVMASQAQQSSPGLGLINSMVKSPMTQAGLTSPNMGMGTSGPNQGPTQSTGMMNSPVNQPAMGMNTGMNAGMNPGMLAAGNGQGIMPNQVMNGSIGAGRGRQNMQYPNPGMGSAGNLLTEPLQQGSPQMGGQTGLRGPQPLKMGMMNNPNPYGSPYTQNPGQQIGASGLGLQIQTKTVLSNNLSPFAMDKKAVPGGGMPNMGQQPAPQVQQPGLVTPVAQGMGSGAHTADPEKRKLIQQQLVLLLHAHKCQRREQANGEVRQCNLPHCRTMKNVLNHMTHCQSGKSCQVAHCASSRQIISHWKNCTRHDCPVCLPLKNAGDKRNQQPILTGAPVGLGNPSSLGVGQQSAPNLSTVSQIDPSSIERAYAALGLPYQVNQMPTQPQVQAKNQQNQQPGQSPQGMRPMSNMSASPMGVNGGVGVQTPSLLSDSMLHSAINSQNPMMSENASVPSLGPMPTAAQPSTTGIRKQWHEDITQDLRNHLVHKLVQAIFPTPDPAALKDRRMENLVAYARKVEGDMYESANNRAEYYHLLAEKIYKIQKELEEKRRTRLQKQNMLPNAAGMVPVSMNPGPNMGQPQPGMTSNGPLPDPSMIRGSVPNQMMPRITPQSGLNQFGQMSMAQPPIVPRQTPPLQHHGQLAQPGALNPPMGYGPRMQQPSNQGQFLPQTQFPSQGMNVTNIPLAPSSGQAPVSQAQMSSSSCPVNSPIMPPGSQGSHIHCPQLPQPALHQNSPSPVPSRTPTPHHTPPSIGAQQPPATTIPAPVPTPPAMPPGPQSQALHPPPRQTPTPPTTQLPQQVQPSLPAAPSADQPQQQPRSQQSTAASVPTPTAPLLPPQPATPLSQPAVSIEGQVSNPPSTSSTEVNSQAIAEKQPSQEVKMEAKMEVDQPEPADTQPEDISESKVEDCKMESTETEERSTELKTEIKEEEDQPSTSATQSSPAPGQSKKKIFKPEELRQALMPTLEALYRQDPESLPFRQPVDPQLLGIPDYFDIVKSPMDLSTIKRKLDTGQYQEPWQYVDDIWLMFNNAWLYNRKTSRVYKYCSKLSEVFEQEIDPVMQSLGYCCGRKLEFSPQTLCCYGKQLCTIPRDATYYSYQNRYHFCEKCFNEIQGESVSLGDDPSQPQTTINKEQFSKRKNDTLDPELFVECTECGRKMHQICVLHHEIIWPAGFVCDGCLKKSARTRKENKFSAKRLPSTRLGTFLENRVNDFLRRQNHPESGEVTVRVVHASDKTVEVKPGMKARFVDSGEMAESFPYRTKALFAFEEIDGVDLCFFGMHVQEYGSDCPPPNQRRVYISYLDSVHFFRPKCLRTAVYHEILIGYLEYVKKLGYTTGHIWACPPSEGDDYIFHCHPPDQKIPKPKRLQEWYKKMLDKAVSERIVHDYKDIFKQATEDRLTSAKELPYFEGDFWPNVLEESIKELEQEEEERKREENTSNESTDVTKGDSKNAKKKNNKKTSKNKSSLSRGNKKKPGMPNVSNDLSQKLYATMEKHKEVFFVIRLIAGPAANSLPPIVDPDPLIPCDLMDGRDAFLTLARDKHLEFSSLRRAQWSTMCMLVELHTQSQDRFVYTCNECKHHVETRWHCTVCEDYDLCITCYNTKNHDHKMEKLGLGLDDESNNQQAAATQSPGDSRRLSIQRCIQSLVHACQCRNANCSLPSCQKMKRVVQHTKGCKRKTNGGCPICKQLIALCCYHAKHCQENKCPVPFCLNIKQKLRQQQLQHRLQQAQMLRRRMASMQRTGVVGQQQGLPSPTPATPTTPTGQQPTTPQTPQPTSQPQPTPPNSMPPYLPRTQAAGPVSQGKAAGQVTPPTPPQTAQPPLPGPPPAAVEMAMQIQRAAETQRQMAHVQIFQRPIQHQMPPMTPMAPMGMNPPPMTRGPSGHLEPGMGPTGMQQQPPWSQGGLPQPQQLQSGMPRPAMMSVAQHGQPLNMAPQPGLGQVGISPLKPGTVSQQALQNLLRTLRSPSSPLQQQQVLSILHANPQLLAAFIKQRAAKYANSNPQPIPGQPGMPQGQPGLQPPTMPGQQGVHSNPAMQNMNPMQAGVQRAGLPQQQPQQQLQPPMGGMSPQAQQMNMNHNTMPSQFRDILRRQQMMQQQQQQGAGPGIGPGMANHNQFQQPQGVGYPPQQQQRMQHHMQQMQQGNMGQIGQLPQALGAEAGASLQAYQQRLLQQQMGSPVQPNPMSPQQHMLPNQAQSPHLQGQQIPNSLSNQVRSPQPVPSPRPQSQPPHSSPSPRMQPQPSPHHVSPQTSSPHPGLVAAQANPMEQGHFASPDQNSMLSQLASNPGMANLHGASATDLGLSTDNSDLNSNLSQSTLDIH
Chain of Human DDB1 (Q16531 whole entry): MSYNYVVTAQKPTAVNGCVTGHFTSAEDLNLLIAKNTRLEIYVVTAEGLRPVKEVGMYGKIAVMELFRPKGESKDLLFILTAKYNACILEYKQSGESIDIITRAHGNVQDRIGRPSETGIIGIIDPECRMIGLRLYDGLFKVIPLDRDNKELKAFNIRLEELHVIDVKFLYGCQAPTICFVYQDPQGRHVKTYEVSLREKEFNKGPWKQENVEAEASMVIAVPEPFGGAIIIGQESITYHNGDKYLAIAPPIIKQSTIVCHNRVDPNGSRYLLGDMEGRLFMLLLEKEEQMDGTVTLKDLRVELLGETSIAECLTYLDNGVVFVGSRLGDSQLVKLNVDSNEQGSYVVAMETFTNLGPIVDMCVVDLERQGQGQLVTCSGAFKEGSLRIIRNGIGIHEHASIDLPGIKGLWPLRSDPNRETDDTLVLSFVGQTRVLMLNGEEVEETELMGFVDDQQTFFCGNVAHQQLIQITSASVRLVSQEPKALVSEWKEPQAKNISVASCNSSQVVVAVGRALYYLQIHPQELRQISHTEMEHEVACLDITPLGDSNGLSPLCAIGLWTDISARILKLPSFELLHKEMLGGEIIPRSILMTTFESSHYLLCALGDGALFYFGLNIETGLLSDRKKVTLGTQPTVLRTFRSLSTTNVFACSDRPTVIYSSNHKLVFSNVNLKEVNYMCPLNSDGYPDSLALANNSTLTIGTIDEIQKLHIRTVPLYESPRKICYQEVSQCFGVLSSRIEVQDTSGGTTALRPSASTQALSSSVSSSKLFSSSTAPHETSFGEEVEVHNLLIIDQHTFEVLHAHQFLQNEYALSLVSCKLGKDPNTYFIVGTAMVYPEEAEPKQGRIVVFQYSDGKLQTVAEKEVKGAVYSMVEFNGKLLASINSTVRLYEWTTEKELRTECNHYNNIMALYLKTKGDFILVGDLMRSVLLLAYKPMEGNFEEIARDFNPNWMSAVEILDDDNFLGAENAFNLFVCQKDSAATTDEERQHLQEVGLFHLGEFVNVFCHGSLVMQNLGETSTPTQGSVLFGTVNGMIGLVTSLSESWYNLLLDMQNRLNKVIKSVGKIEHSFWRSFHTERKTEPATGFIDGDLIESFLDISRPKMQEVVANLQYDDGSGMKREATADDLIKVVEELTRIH
Chain of CDK4 (P11802 whole entry): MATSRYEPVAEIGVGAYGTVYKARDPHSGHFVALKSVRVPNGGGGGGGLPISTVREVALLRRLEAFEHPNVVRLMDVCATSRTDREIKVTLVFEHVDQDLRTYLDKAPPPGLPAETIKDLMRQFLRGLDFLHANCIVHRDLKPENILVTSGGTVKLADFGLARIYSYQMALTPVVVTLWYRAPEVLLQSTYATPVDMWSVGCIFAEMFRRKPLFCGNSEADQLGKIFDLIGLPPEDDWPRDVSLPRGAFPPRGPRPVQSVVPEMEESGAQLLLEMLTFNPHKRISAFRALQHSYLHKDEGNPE
Chain of CDK6 (Q00534 whole entry): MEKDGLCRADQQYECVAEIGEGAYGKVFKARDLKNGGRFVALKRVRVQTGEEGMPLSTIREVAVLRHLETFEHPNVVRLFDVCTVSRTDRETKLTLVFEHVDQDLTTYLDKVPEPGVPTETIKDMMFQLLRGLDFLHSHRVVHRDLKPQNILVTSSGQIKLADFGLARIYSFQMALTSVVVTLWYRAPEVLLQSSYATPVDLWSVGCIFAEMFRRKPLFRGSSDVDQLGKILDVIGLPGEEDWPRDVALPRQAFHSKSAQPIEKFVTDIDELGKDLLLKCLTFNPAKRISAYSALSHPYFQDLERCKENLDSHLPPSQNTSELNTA

| SMILES | Kd [2] [nM] | IC50 [8] [nM] | IC50 [9] [nM] | IC50 [10] [nM] | IC50 [11] [nM] | IC50 [12] [nM] | IC50 [13] [nM] | IC50 [14] [nM] | IC50 [15] [nM] | IC50 [16] [nM] | IC50 [17] [nM] | reduction of cell viability compared to palbociclib [18] | IC50 [19] [nM] | IC50 [20] [nM] | IC50 [21] [nM] | also measured |
| --- | --- | --- | --- | --- | --- | --- | --- | --- | --- | --- | --- | --- | --- | --- | --- | --- |
| CC(=O)Nc1cc(NCCCCNC(=O)CN2CCC(n3nc(N4CCCc5cc(-c6cnn(C)c6)c(C(F)F)cc54)c4c3CCN(C(C)=O)C4)CC2)ccc1C(=O)Nc1nc(C)c([N+](=O)[O-])s1 [D-2, 2-Acetamido-4-((4-(2-(4-(5-acetyl-3-(7-(difluoromethyl)-6-(1-methyl-1H-pyrazol-4-yl)-3,4-dihydroquinolin-1 (2H)-yl)-4,5,6,7-tetrahydro-1H-pyrazolo[4,3-c]pyridin-1-yl)piperidin-1-yl)acetamido)butyl)amino)-N-(4-methyl-5-nitrothiazol-2-yl)benzamide] | 20000 to 100000 |  |  |  |  |  |  |  |  |  |  |  |  |  |  | viability of LNCaP cells ([1]; 10 μM top, 12-point 3-fold serial dilution): dose-dependently suppressed viability of LNCaP cells; inhibitory effects on the growth of LNCaP cells compared to GNE-781 [1]: more potent inhibitory effects; compound-induced degradation under co-administration of MG-132 or bortezomib (BTZ), or MLN4924 [3]: compromised; time at which significant degradation of P300 was detected ([4]; 500 nM, time course): 2 to 4 h; P300 protein levels [4, 22]: significantly decreased in a concentration-dependent manner; time at which significant degradation of CBP was detected ([5]; 500 nM, time course): 2 to 4 h; CBP protein levels [5, 22]: significantly decreased in a concentration-dependent manner |
| CC(=O)Nc1cc(NCCOCCOCCOCCOCCOCCNC(=O)CN2CCN(c3ccc(Nc4ncc5c(C)c(C(C)=O)c(=O)n(C6CCCC6)c5n4)nc3)CC2)ccc1C(=O)Nc1nc(C)c([N+](=O)[O-])s1 [D-48, 2-Acetamido-4-((1-(4-(6-((6-acetyl-8-cyclopentyl-5-methyl-7-oxo-7,8-dihydropyrido[2,3-d]pyrimidin-2-yl)amino)pyridin-3-yl)piperazin-1-yl)-2-oxo-6,9,12,15,18-pentaoxa-3-azaicosan-20-yl)amino)-N-(4-methyl-5-nitrothiazol-2-yl)benzamide] | < 20000 |  |  |  |  |  |  |  |  |  |  |  |  |  |  | degradation of CDK4 [6]: Significant degradation; degradation of CDK6 [7]: Significant degradation |
| CC(=O)c1c(C)c2cnc(Nc3ccc(N4CCN(CC(=O)NCCOCCOCCOCCOCCNc5ccc(C(=O)Nc6ncc([N+](=O)[O-])s6)c(C)c5)CC4)cn3)nc2n(C2CCCC2)c1=O [D-128, 4-((1-(4-(6-((6-Acetyl-8-cyclopentyl-5-methyl-7-oxo-7,8-dihydropyrido[2,3-d]pyrimidin-2-yl)amino)pyridin-3-yl)piperazin-1-yl)-2-oxo-6,9,12,15-tetraoxa-3-azaheptadecan-17-yl)amino)-2-methyl-N-(5-nitrothiazol-2-yl)benzamide] |  | 2000 to 10000 | < 2000 | < 2000 | < 2000 | < 2000 | < 2000 | < 2000 | < 2000 | < 2000 | < 2000 | more effective at lower doses than palbociclib | < 2000 | < 2000 | < 2000 |  |
| CC(=O)c1c(C)c2cnc(Nc3ccc(N4CCN(CC(=O)NCCOCCOCCOCCOCCOCCNc5ccc(C(=O)Nc6ncc([N+](=O)[O-])s6)c(C)c5)CC4)cn3)nc2n(C2CCCC2)c1=O [D-129, 4-((1-(4-(6-((6-Acetyl-8-cyclopentyl-5-methyl-7-oxo-7,8-dihydropyrido[2,3-d]pyrimidin-2-yl)amino)pyridin-3-yl)piperazin-1-yl)-2-oxo-6,9,12,15,18-pentaoxa-3-azaicosan-20-yl)amino)-2-methyl-N-(5-nitrothiazol-2-yl)benzamide] |  | 2000 to 10000 | < 2000 | < 2000 | < 2000 | < 2000 | < 2000 | < 2000 | < 2000 | < 2000 | < 2000 | more effective at lower doses than palbociclib | < 2000 | < 2000 | < 2000 |  |
| CC(=O)c1c(C)c2cnc(Nc3ccc(N4CCN(CC(=O)NCCOCCOCCOCCOCCOCCOCCNc5ccc(C(=O)Nc6ncc([N+](=O)[O-])s6)c(C)c5)CC4)cn3)nc2n(C2CCCC2)c1=O [D-130, 4-((1-(4-(6-((6-Acetyl-8-cyclopentyl-5-methyl-7-oxo-7,8-dihydropyrido[2,3-d]pyrimidin-2-yl)amino)pyridin-3-yl)piperazin-1-yl)-2-oxo-6,9,12,15,18,21-hexaoxa-3-azatricosan-23-yl)amino)-2-methyl-N-(5-nitrothiazol-2-yl)benzamide] |  | 2000 to 10000 | < 2000 | < 2000 | 2000 to 10000 | < 2000 | < 2000 | < 2000 | < 2000 | < 2000 | < 2000 | more effective at lower doses than palbociclib | < 2000 | < 2000 | < 2000 |  |
